The record followed here is patent US10723723B2, “Substituted bicycle heterocyclic derivatives useful as ROMK channel inhibitors” (BRISTOL-MYERS SQUIBB COMPANY, priority 2016, dated 2020).

In general, IC50 refers to the concentration needed to halve the response being measured.

Sequence of hROMK (human Kir1.1) (P48048 whole entry): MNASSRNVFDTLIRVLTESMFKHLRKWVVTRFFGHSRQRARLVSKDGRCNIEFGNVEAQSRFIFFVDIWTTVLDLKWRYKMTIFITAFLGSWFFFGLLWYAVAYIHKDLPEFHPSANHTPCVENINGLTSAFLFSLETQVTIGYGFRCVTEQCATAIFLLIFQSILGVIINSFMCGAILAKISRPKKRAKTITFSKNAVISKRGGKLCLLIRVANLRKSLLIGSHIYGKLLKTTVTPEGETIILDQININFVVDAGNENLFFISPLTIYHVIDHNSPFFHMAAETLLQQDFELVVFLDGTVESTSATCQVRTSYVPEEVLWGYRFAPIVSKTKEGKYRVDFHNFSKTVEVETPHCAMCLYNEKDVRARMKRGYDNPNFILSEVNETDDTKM

This assay concerns the target hROMK (human Kir1.1) (Homo sapiens (Human), UniProt P48048). Put plainly: Thallium Flux Assay (FluxOR, CHO T-Rex hROMK stable cell line). The assay is classed as cell-based. The settings on record: CHO T-Rex hROMK cells, 10-point concentration response curve; read-out: Human ROMK TH Flux IC50.
On to `Cc1c(C(O)CN(C)Cc2ccc(-n3ccc4cc(C#N)ccc43)cc2)ccc2c1COC2=O` (single isomer, unassigned) [Example 32-I, 1-(4-(((2-hydroxy-2-(4-methyl-1-oxo-1,3-dihydroisobenzofuran-5-yl)ethyl)(methyl)amino)methyl)phenyl)-1H-indole-5-carbonitrile], for which the 50% inhibitory concentration (IC50) is 0.53 µM. As for `Cc1c([C@@H](O)CN(C)Cc2ccc(-c3ccc4oc(=O)n(C)c4c3)cn2)ccc2c1COC2=O` (single isomer, unassigned) [Example 84], the figure is 0.082 µM; as for `Cc1cn(-c2cnc(CNC[C@H](O)c3ccc4c(c3C)COC4=O)cn2)cn1` [Example 141, (R)-5-(1-hydroxy-2-(((5-(4-methyl-1H-imidazol-1-yl)pyrazin-2-yl)methyl)amino)ethyl)-4-methylisobenzofuran-1(3H)-one], 0.29 µM; as for `Cc1cc(-n2cc(CNCC(C)(O)c3ccc4c(c3C)COC4=O)cn2)ncc1C#N` (single isomer, unassigned) [Example 170-I, 6-(4-(((2-hydroxy-2-(4-methyl-1-oxo-1,3-dihydroisobenzofuran-5-yl)propyl)amino)methyl)-1H-pyrazol-1-yl)-4-methylnicotinonitrile], 0.16 µM. The same measure for `Cc1c(C(O)CN(C)Cc2cnc(-c3ccc4oc(=O)n(C)c4c3)nc2)ccc2c1COC2=O` (stereo not drawn) [Example 9-I]: 0.29 µM; for `Cc1c([C@H](CNCc2cnn(-c3ccc4oc(=O)n(C)c4c3)c2)OC(=O)[C@H](N)C(C)C)ccc2c1COC2=O` [Example 44, (R)-1-(4-methyl-1-oxo-1,3-dihydroisobenzofuran-5-yl)-2-(((1-(3-methyl-2-oxo-2,3-dihydrobenzo[d]oxazol-5-yl)-1H-pyrazol-4-yl)methyl)amino)ethyl D-valinate]: 0.14 µM. As for `Cc1cc(-n2cc(CNC[C@H](O)c3ccc4c(c3C)COC4=O)ccc2=O)ncc1C#N` [Example 99, (R)-5-(((2-hydroxy-2-(4-methyl-1-oxo-1,3-dihydroisobenzofuran-5-yl)ethyl)amino)methyl)-4′-methyl-2-oxo-2H-[1,2′-bipyridine]-5′-carbonitrile], the figure is 0.14 µM.

`Cc1cn(-c2ncc(CNC[C@H](O)c3ccc4c(c3C)COC4=O)cc2F)cn1` (single isomer, unassigned) [Example 83]: the IC50 stood at 0.046 µM. The same measure for `Cc1cc(-n2[nH]cc(CNC[C@H](O)c3ccc4c(c3C)COC4=O)c2=O)ncc1C#N` [Example 36, (R)-6-(4-(((2-hydroxy-2-(4-methyl-1-oxo-1,3-dihydroisobenzofuran-5-yl)ethyl)amino)methyl)-5-oxo-2,5-dihydro-1H-pyrazol-1-yl)-4-methylnicotinonitrile]: 0.39 µM; for `Cc1c(C(O)CNCc2ccc(-c3ccc(C#N)c(F)c3)cc2)ccc2c1COC2=O` (single isomer, unassigned) [Example 10-II, 3-fluoro-4′-(((2-hydroxy-2-(4-methyl-1-oxo-1,3-dihydroisobenzofuran-5-yl)ethyl)amino)methyl)-[1,1′-biphenyl]-4-carbonitrile]: 0.14 µM.

`Cc1c(C(CO)NCCc2cccc(-c3ccc(C#N)c(F)c3)c2)ccc2c1COC2=O` (single isomer, unassigned) [Example 15-I, 3-fluoro-3′-(2-((2-hydroxy-1-(4-methyl-1-oxo-1,3-dihydroisobenzofuran-5-yl)ethyl)amino)ethy)-[1,1′-biphenyl]-4-carbonitrile]: the IC50 turned out to be 2 µM. On to `Cc1cc(-c2nc(CNC[C@H](O)c3ccc4c(c3C)COC4=O)n(C)n2)ncc1C#N` [Example 42, (R)-6-(5-(((2-hydroxy-2-(4-methyl-1-oxo-1,3-dihydroisobenzofuran-5-yl)ethyl)amino)methyl)-1-methyl-1H-1,2,4-triazol-3-yl)-4-methylnicotinonitrile], for which the IC50 turned out to be 0.855 µM. `Cc1c([C@@H](O)CN(CCCC(F)(F)F)Cc2ccc(-c3ccc4oc(=O)n(C)c4c3)nc2)ccc2c1COC2=O` [Example 163, (R)-5-(5-(((2-hydroxy-2-(4-methyl-1-oxo-1,3-dihydroisobenzofuran-5-yl)ethyl)(4,4,4-trifluorobutyl)amino)meth-yl)pyridin-2-yl)-3-methylbenzo[d]oxazol-2(3H)-one]: the IC50 was 0.26 µM. The same measure for `Cc1cn(-c2ccc(CNC[C@H](O)c3ccc4c(c3C)COC4=O)c(C)n2)cn1` [Example 77]: 0.19 µM.

As to `Cc1cc(-n2cc(CNC[C@H](NS(=O)(=O)C3CC3)c3ccc4c(c3C)COC4=O)cn2)ncc1C#N` [Example 62, (R)-N-(2-(((1-(5-cyano-4-methylpyridin-2-yl)-1H-pyrazol-4-yl)methyl)amino)-1-(4-methyl-1-oxo-1,3-dihydroisobenzofuran-5-yl)ethyl)cyclopropanesulfon-amide], the IC50 was 0.39 µM. As for `Cc1c(C(O)CN(C)Cc2ccc(-n3cc(C#N)c4ccccc43)cc2)ccc2c1COC2=O` (single isomer, unassigned) [Example 12-II, 1-(4-(((2-hydroxy-2-(4-methyl-1-oxo-1,3-dihydroisobenzofuran-5-yl)ethyl)(methyl)amino)methyl)phenyl)-1H-indole-3-carbonitrile], the figure is 0.52 µM. The same measure for `Cc1cc(-n2nc(C)c(CNC[C@H](O)c3ccc4c(c3C)COC4=O)n2)ncc1C#N` [Example 58, (R)-6-(4-(((2-hydroxy-2-(4-methyl-1-oxo-1,3-dihydroisobenzofuran-5-yl)ethyl)amino)methyl)-5-methyl-2H-1,2,3-triazol-2-yl)-4-methylnicotinonitrile]: 0.3 µM. The same measure for `CN(Cc1ccc(-c2ccc(C#N)c(F)c2)cc1)Cc1ccc2c(c1)COC2=O` [Example 29, 3-fluoro-4′-((methyl((1-oxo-1,3-dihydroisobenzofuran-5-yl)methyl)amino)methyl)-[1,1′-biphenyl]-4-carbonitrile]: 3.3 µM; for `Cc1cc(-n2cc(CNCC(O)c3ccc4c(c3C)C(C)OC4=O)cn2)ncc1C#N` (single isomer, unassigned) [Example 172-II, 6-(4-(((2-(3,4-dimethyl-1-oxo-1,3-dihydroisobenzofuran-5-yl)-2-hydroxyethyl)amino)meth-yl)-1H-pyrazol-1-yl)-4-methylnicotinonitrile]: 1.8 µM; for `Cc1c([C@@H](O)CNCc2cnn(-c3ccc4oc(=O)[nH]c4c3)c2)ccc2c1COC2=O` [Example 121, (R)-5-(4-(((2-hydroxy-2-(4-methyl-1-oxo-1,3-dihydroisobenzofuran-5-yl)ethyl)amino)methyl)-1H-pyrazol-1-yl)benzo[d]oxazol-2(3H)-one]: 0.16 µM. For the compound `CN(Cc1ccc(-c2ccc3oc(=O)n(C)c3c2)nc1)CC(O)c1ccc2oc(=O)n(C)c2c1` (single isomer, unassigned) [Example 5-I], the IC50 was found to be 1.5 µM. `Cc1c(C(O)CN(C)Cc2cnc(-n3ncc4ncccc43)nc2)ccc2c1COC2=O` (single isomer, unassigned) [Example 17-I, 5-(2-(((2-(1H-pyrazolo[4,3-b]pyridin-1-yl)pyrimidin-5-yl)methyl)(mehyl)amino)-1-hydroxyethyl)-4-methylisobenzofuran-1(3H)-one]: the IC50 worked out at 1.5 µM. The same measure for `Cc1cc(-c2cnc(CNC[C@H](O)c3ccc4c(c3C)COC4=O)nc2)ncc1C#N` [Example 40, (R)-6-(2-(((2-hydroxy-2-(4-methyl-1-oxo-1,3-dihydroisobenzofuran-5-yl)ethyl)amino)methyl)pyrimidin-5-yl)-4-methylnicotinonitrile]: 0.34 µM; for `Cc1cn(-c2ccc(CNC[C@H](O)c3ccc4c(c3C)COC4=O)nn2)cn1` [Example 53, (R)-5-(1-hydroxy-2-(((6-(4-methyl-1H-imidazol-1-yl)pyridazin-3-yl)methyl)amino)ethyl)-4-methylisobenzofuran-1(3H)-one]: 0.32 µM; for `Cc1c(C(CO)NCCc2cccc(-c3ccc(C#N)c(F)c3)c2)ccc2c1COC2=O` (single isomer, unassigned) [Example 15-II, 3-fluoro-3′-(2-((2-hydroxy-1-(4-methyl-1-oxo-1,3-dihydroisobenzofuran-5-yl)ethyl)amino)ethy)-[1,1′-biphenyl]-4-carbonitrile]: 1.5 µM. The same measure for `Cc1c([C@@H](O)CNCc2cnn(-c3cc(N4CCCC4)c(C#N)cn3)c2)ccc2c1COC2=O` [Example 119, (R)-6-(4-(((2-hydroxy-2-(4-methyl-1-oxo-1,3-dihydroisobenzofuran-5-yl)ethyl)amino)methyl)-1H-pyrazol-1-yl)-4-(pyrrolidin-1-yl)nicotinonitrile]: 0.091 µM. As for `Cc1c([C@@H](O)CNCc2ccc(-c3ccc(=O)n(C)n3)nc2)ccc2c1COC2=O` [Example 122, (R)-6-(5-(((2-hydroxy-2-(4-methyl-1-oxo-1,3-dihydroisobenzofuran-5-yl)ethyl)amino)methyl)pyridin-2-yl)-2-methylpyridazin-3(2H)-one], the figure is 0.17 µM. Turning to `Cc1cc(-n2cc(CNCC(O)c3ccc4c(c3C)C(C)OC4=O)cn2)ncc1C#N` (single isomer, unassigned) [Example 172-I, 6-(4-(((2-(3,4-dimethyl-1-oxo-1,3-dihydroisobenzofuran-5-yl)-2-hydroxyethyl)amino)meth-yl)-1H-pyrazol-1-yl)-4-methylnicotinonitrile], the IC50 was found to be 0.85 µM.

Regarding `Cc1cc(-n2ccc3cc(CN(C)CC(O)c4ccc5c(c4C)COC5=O)ccc32)ncc1C#N` (single isomer, unassigned) [Example 33-I, 6-(5-(((2-hydroxy-2-(4-methyl-1-oxo-1,3-dihydroisobenzofuran-5-yl)ethyl)(methyl)amino)methyl)-1H-indol-1-yl)-4-methylnicotinonitrile], the IC50 was determined as 3.3 µM.

Consider `COc1cc(-c2ncc(CNC[C@H](O)c3ccc4c(c3C)COC4=O)s2)ncc1C#N` [Example 129, (R)-6-(5-(((2-hydroxy-2-(4-methyl-1-oxo-1,3-dihydroisobenzofuran-5-yl)ethyl)amino)methyl)thiazol-2-yl)-4-methoxynicotinonitrile], for which the IC50 amounted to 0.008 µM.
